Experiments:
Experiment in all cases: relative viability (nuclei count vs DMSO), 5 days (fraction); higher = more cells survive
201T = system: 201T
How it was run: (§1)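 Each reported value is a median over duplicate plates. It expresses relative viability: treated-well nuclei count divided by vehicle-well nuclei count. Lung cancer cell lines in 1536-well plates were dosed by pin tool a day after seeding, alone with one drug or with a fixed anchor-drug dose plus five library-drug doses (not always all listed) in √10 steps, and nuclei were counted after 5 days.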

ABC-1 = system: ABC-1
How it was run: as §1

BEN = system: BEN
How it was run: as §1

CAL-12T = system: CAL-12T
How it was run: as §1

COR-L 105 = system: COR-L 105
How it was run: as §1

EKVX = system: EKVX
How it was run: as §1

HARA = system: HARA
How it was run: as §1

LK-2 = system: LK-2
How it was run: as §1

LOU-NH91 = system: LOU-NH91
How it was run: as §1

NCI-H1437 = system: NCI-H1437
How it was run: as §1

NCI-H1650 = system: NCI-H1650
How it was run: as §1

NCI-H1666 = system: NCI-H1666
How it was run: as §1

NCI-H2009 = system: NCI-H2009
How it was run: as §1

NCI-H2170 = system: NCI-H2170
How it was run: as §1

NCI-H3122 = system: NCI-H3122
How it was run: as §1

NCI-H441 = system: NCI-H441
How it was run: as §1

NCI-H460 = system: NCI-H460
How it was run: as §1

NCI-H661 = system: NCI-H661
How it was run: as §1

NCI-H727 = system: NCI-H727
How it was run: as §1

PC-14 = system: PC-14
How it was run: as §1

SW 900 = system: SW 900
How it was run: as §1

Compound: O=c1cc(-c2cccc3c2Sc2ccccc2S3)oc(N2CCOCC2)c1 + CCNC(=O)c1noc(-c2cc(C(C)C)c(O)cc2O)c1-c1ccc(CN2CCOCC2)cc1 [Luminespib] (partner 0.01 µM)
- relative viability (201T; first compound 0.08 µM): 1.02
- relative viability (201T; first compound 0.253 µM): 1.05
- relative viability (201T; first compound 0.8 µM): 1.16
- relative viability (201T; first compound 2.53 µM): 0.99
- relative viability (201T; first compound 8 µM): 0.969
- relative viability (ABC-1; first compound 0.08 µM): 0.535
- relative viability (ABC-1; first compound 0.253 µM): 0.275
- relative viability (ABC-1; first compound 0.8 µM): 0.91
- relative viability (ABC-1; first compound 2.53 µM): 0.529
- relative viability (ABC-1; first compound 8 µM): 0.532
- relative viability (BEN; first compound 0.08 µM): 0.223
- relative viability (BEN; first compound 0.253 µM): 0.435
- relative viability (BEN; first compound 0.8 µM): 0.294
- relative viability (BEN; first compound 2.53 µM): 0.271
- relative viability (BEN; first compound 8 µM): 0.387
- relative viability (CAL-12T; first compound 0.08 µM): 0.277
- relative viability (CAL-12T; first compound 0.253 µM): 0.708
- relative viability (CAL-12T; first compound 0.8 µM): 0.506
- relative viability (CAL-12T; first compound 2.53 µM): 0.299
- relative viability (CAL-12T; first compound 8 µM): 0.207
- relative viability (COR-L 105; first compound 0.08 µM): 0.701
- relative viability (COR-L 105; first compound 0.253 µM): 0.762
- relative viability (COR-L 105; first compound 0.8 µM): 0.705
- relative viability (COR-L 105; first compound 2.53 µM): 0.671
- relative viability (COR-L 105; first compound 8 µM): 1.02
- relative viability (EKVX; first compound 0.08 µM): 0.829
- relative viability (EKVX; first compound 0.253 µM): 0.924
- relative viability (EKVX; first compound 0.8 µM): 0.846
- relative viability (EKVX; first compound 2.53 µM): 0.883
- relative viability (EKVX; first compound 8 µM): 0.853
- relative viability (HARA; first compound 0.08 µM): 0.708
- relative viability (HARA; first compound 0.253 µM): 0.808
- relative viability (HARA; first compound 0.8 µM): 0.822
- relative viability (HARA; first compound 2.53 µM): 0.576
- relative viability (HARA; first compound 8 µM): 0.834
- relative viability (LK-2; first compound 0.08 µM): 0.184
- relative viability (LK-2; first compound 0.253 µM): 0.184
- relative viability (LK-2; first compound 0.8 µM): 0.151
- relative viability (LK-2; first compound 2.53 µM): 0.22
- relative viability (LK-2; first compound 8 µM): 0.176
- relative viability (LOU-NH91; first compound 0.08 µM): 0.327
- relative viability (LOU-NH91; first compound 0.253 µM): 0.43
- relative viability (LOU-NH91; first compound 0.8 µM): 0.339
- relative viability (LOU-NH91; first compound 2.53 µM): 0.354
- relative viability (LOU-NH91; first compound 8 µM): 0.357
- relative viability (NCI-H1437; first compound 0.08 µM): 1.08
- relative viability (NCI-H1437; first compound 0.253 µM): 1.29
- relative viability (NCI-H1437; first compound 0.8 µM): 1.28
- relative viability (NCI-H1437; first compound 2.53 µM): 1.15
- relative viability (NCI-H1437; first compound 8 µM): 1.21
- relative viability (NCI-H1650; first compound 0.08 µM): 0.189
- relative viability (NCI-H1650; first compound 0.253 µM): 0.199
- relative viability (NCI-H1650; first compound 0.8 µM): 0.199
- relative viability (NCI-H1650; first compound 2.53 µM): 0.186
- relative viability (NCI-H1650; first compound 8 µM): 0.209
- relative viability (NCI-H1666; first compound 0.08 µM): 1.01
- relative viability (NCI-H1666; first compound 0.253 µM): 1.09
- relative viability (NCI-H1666; first compound 0.8 µM): 1.01
- relative viability (NCI-H1666; first compound 2.53 µM): 1.06
- relative viability (NCI-H1666; first compound 8 µM): 1.17
- relative viability (NCI-H2009; first compound 0.08 µM): 1.07
- relative viability (NCI-H2009; first compound 0.253 µM): 1.1
- relative viability (NCI-H2009; first compound 0.8 µM): 1.01
- relative viability (NCI-H2009; first compound 2.53 µM): 0.939
- relative viability (NCI-H2009; first compound 8 µM): 1
- relative viability (NCI-H2170; first compound 0.08 µM): 0.839
- relative viability (NCI-H2170; first compound 0.253 µM): 0.931
- relative viability (NCI-H2170; first compound 0.8 µM): 0.903
- relative viability (NCI-H2170; first compound 2.53 µM): 0.63
- relative viability (NCI-H2170; first compound 8 µM): 0.533
- relative viability (NCI-H3122; first compound 0.08 µM): 0.109
- relative viability (NCI-H3122; first compound 0.253 µM): 0.102
- relative viability (NCI-H3122; first compound 0.8 µM): 0.111
- relative viability (NCI-H3122; first compound 2.53 µM): 0.0685
- relative viability (NCI-H3122; first compound 8 µM): 0.106
- relative viability (NCI-H441; first compound 0.08 µM): 0.331
- relative viability (NCI-H441; first compound 0.253 µM): 0.314
- relative viability (NCI-H441; first compound 0.8 µM): 0.35
- relative viability (NCI-H441; first compound 2.53 µM): 0.407
- relative viability (NCI-H441; first compound 8 µM): 0.281
- relative viability (NCI-H460; first compound 0.08 µM): 0.0288
- relative viability (NCI-H460; first compound 0.253 µM): 0.0357
- relative viability (NCI-H460; first compound 0.8 µM): 0.0367
- relative viability (NCI-H460; first compound 2.53 µM): 0.0306
- relative viability (NCI-H460; first compound 8 µM): 0.0332
- relative viability (NCI-H661; first compound 0.08 µM): 0.914
- relative viability (NCI-H661; first compound 0.253 µM): 0.939
- relative viability (NCI-H661; first compound 0.8 µM): 0.893
- relative viability (NCI-H661; first compound 2.53 µM): 0.897
- relative viability (NCI-H661; first compound 8 µM): 0.891
- relative viability (NCI-H727; first compound 0.08 µM): 0.289
- relative viability (NCI-H727; first compound 0.253 µM): 0.449
- relative viability (NCI-H727; first compound 0.8 µM): 0.307
- relative viability (NCI-H727; first compound 2.53 µM): 0.536
- relative viability (NCI-H727; first compound 8 µM): 0.382
- relative viability (PC-14; first compound 0.08 µM): 0.155
- relative viability (PC-14; first compound 0.253 µM): 0.15
- relative viability (PC-14; first compound 0.8 µM): 0.165
- relative viability (PC-14; first compound 2.53 µM): 0.168
- relative viability (PC-14; first compound 8 µM): 0.155
- relative viability (SW 900; first compound 0.08 µM): 0.198
- relative viability (SW 900; first compound 0.253 µM): 0.187
- relative viability (SW 900; first compound 0.8 µM): 0.166
- relative viability (SW 900; first compound 2.53 µM): 0.149
- relative viability (SW 900; first compound 8 µM): 0.15

From the supplement of paper PMC10307832
